# From patent US11787796B2, “Plasma Kallikrein inhibitors and uses thereof” (Takeda Pharmaceutical Company Limited, priority 2019, dated 2023)
# Target: human activated kallikrein enzyme (Homo sapiens (Human), UniProt P03952)
# Assay: Plasma kallikrein inhibition assay with fluorogenic peptide substrate, 500 pM activated kallikrein format
# Assay type: biochemical
# Settings: 500 pM activated kallikrein; 300 uM Pro-Phe-Arg-7-amido-4-methylcoumarin substrate; 30 min preincubation, 10 min reaction at RT; read-out: Primary Dose Response Assay: Average EC50
# Description: Example compounds were evaluated for inhibition of the human activated kallikrein enzyme in two formats of an assay employing a fluorogenic peptide substrate. In one assay format, the concentrations of reagents were as follows: 20 mM Tris pH 7.5, 1 mM EDTA, 150 mM sodium chloride, 0.1% PEG-400, 0.1% Triton X-100, […], 300 uM Pro-Phe-Arg-7-amido-4-methylcoumarin substrate. Prior to reaction initiation with substrate, enzyme and inhibitors were preincubated for 30 min at RT. After initiation with substrate, reactions were incubated for 10 min at RT and fluorescence emission at 460 nm from 380 nm excitation measured with a microplate reader. In another assay format, the concentrations of reagents were as follows: 20 mM Tris pH 7.5, 1 mM EDTA, 150 mM sodium chloride, 0.1% PEG-400, 0.1% Triton X-100, 5 pM activated kallikrein enzyme, 300 uM Pro-Phe-Arg-7-amido-4-methylcoumarin substrate. Prior to reaction initiation with substrate, enzyme and inhibitors were preincubated for 30 min at RT. After initiation with substrate, reactions were incubated for 18 h at RT and fluorescence emission at 460 nm from 380 nm excitation measured with a microplate reader.
# Table II provides the results of the assay in the format with 500 pM activated kallikrein assay.
# Table III provides comparative plasma kallikrein inhibition potency in the assay format with 500 pM activated kallikrein assay (described in detail in the preceding example).
# Chain of human activated kallikrein enzyme (P03952 391-638): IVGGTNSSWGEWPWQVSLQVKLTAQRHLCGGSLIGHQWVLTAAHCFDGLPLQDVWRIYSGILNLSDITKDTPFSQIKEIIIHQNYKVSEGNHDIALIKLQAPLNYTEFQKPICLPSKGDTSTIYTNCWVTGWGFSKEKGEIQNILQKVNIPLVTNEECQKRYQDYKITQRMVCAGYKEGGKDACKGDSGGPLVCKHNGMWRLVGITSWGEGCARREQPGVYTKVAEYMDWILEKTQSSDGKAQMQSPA
# Chain of human activated kallikrein enzyme (P03952 20-390 partner): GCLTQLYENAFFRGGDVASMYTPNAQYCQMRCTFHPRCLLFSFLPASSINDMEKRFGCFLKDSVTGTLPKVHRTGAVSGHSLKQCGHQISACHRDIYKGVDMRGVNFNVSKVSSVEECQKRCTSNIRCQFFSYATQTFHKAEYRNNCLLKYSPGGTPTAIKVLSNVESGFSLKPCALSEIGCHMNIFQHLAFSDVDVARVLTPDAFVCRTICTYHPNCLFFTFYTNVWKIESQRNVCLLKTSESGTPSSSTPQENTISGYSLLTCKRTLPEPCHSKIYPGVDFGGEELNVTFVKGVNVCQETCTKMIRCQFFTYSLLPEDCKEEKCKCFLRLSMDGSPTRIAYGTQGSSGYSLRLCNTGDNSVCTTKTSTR
row,Structure (SMILES),EC50
1,"COc1ccc(-n2cnnn2)c(CNC(=O)c2cn(Cc3cn4cc(C5CC5)cc(COCCN)c4n3)nn2)c1F [Example I-17, 1-((8-((2-aminoethoxy)methyl)-6-cyclopropylimidazo[1,2-a]pyridin-2-yl)methyl)-N-(2-fluoro-3-methoxy-6-(1H-tetrazol-1-yl)benzyl)-1H-1,2,3-triazole-4-carboxamide]",≤ 1 nM
2,"Cc1cc(N)nc(C)c1CNS(=O)(=O)c1cnn(Cc2cn3cc(C4CC4)ccc3n2)c1 [Example I-46, N-((6-amino-2,4-dimethylpyridin-3-yl)methyl)-1-((6-cyclopropylimidazo[1,2-a]pyridin-2-yl)methyl)-1H-pyrazole-4-sulfonamide]",100 to 2000 nM
3,"COc1ccc(-n2ccc(C(F)(F)F)n2)c(CNC(=O)c2cn(Cc3cn4cc(C5CC5)ccc4n3)nn2)c1F [Example I-62, 1-((6-cyclopropylimidazo[1,2-a]pyridin-2-yl)methyl)-N-(2-fluoro-3-methoxy-6-(3-(trifluoromethyl)-1H-pyrazol-1-yl)benzyl)-1H-1,2,3-triazole-4-carboxamide]",1 to 10 nM
4,"Cc1cc(C(=N)N)cc(C)c1CNS(=O)(=O)c1cnn(Cc2cn3cc(C4CC4)ccc3n2)c1 [Example I-39, 4-(((1-((6-cyclopropylimidazo[1,2-a]pyridin-2-yl)methyl)-1H-pyrazole)-4-sulfonamido)methyl)-3,5-dimethylbenzimidamide]",10 to 100 nM
5,"O=C(NCc1cc2c(cn1)NCCO2)c1cn(Cc2cn3cc(C4CC4)ccc3n2)nn1 [Example I-149, 1-((6-cyclopropylimidazo[1,2-a]pyridin-2-yl)methyl)-N-((3,4-dihydro-2H-pyrido[4,3-b][1,4]oxazin-7-yl)methyl)-1H-1,2,3-triazole-4-carboxamide]",10 to 100 nM
6,"O=C(NCc1ccc2nccn2c1)c1cn(Cc2cn3cc(C4CC4)ccc3n2)nn1 [Example I-136, 1-((6-cyclopropylimidazo[1,2-a]pyridin-2-yl)methyl)-N-(imidazo[1,2-a]pyridin-6-ylmethyl)-1H-1,2,3-triazole-4-carboxamide]",100 to 2000 nM
7,"COc1ccc(-n2cnnn2)c(CNC(=O)c2nc3n(n2)CCC3c2cn3cc(C4CC4)ccc3n2)c1F (stereo not drawn) [Example I-4, 7-(6-cyclopropylimidazo[1,2-a]pyridin-2-yl)-N-(2-fluoro-3-methoxy-6-(1H-tetrazol-1-yl)benzyl)-6,7-dihydro-5H-pyrrolo[1,2-b][1,2,4]triazole-2-carboxamide]",1 to 10 nM
8,"COc1ccc(-n2cncn2)c(CNC(=O)c2cn(Cc3cn4cc(C5CC5)ccc4n3)nn2)c1F [Example I-61, 1-((6-cyclopropylimidazo[1,2-a]pyridin-2-yl)methyl)-N-(2-fluoro-3-methoxy-6-(1H-1,2,4-triazol-1-yl)benzyl)-1H-1,2,3-triazole-4-carboxamide]",≤ 1 nM
9,"NCc1cc2c(cn1)N(C(=O)c1cn(Cc3cn4cc(C5CC5)ccc4n3)nn1)CC2 [Example I-147, (5-(aminomethyl)-2,3-dihydro-1H-pyrrolo[2,3-c]pyridin-1-yl)(1-((6-cyclopropylimidazo[1,2-a]pyridin-2-yl)methyl)-1H-1,2,3-triazol-4-yl)methanone]",100 to 2000 nM
10,"O=C(NCc1cc(Cl)ccc1-n1cc(Cl)nn1)c1cn(Cc2cn3cc(C4CC4)ccc3n2)nn1 [Example I-3, N-(5-chloro-2-(4-chloro-1H-1,2,3-triazol-1-yl)benzyl)-1-((6-cyclopropylimidazo[1,2-a]pyridin-2-yl)methyl)-1H-1,2,3-triazole-4-carboxamide]",10 to 100 nM
11,"COc1ccc(-c2nnco2)c(CNC(=O)c2cn(Cc3cn4cc(C5CC5)ccc4n3)nn2)c1F [Example I-97, 1-((6-cyclopropylimidazo[1,2-a]pyridin-2-yl)methyl)-N-(2-fluoro-3-methoxy-6-(1,3,4-oxadiazol-2-yl)benzyl)-1H-1,2,3-triazole-4-carboxamide]",10 to 100 nM
12,"O=C(NCc1c(-n2cnnn2)ccc(Cl)c1F)c1cn(Cc2cn3cc(C4CC4)ccc3n2)nn1 [Example I-106, N-(3-chloro-2-fluoro-6-(1H-tetrazol-1-yl)benzyl)-1-((6-cyclopropylimidazo[1,2-a]pyridin-2-yl)methyl)-1H-1,2,3-triazole-4-carboxamide]",≤ 1 nM
13,"O=S(=O)(NCc1c(-n2cnnn2)ccc(Cl)c1F)c1cn(Cc2cn3cc(C4CC4)ccc3n2)nn1 [Example I-30, N-(3-chloro-2-fluoro-6-(1H-tetrazol-1-yl)benzyl)-1-((6-cyclopropylimidazo[1,2-a]pyridin-2-yl)methyl)-1H-1,2,3-triazole-4-sulfonamide]",100 to 2000 nM
14,"COc1ccc(S(C)(=O)=O)c(CNC(=O)c2cn(Cc3cn4cc(C5CC5)ccc4n3)nn2)c1F [Example I-53, 1-((6-cyclopropylimidazo[1,2-a]pyridin-2-yl)methyl)-N-(2-fluoro-3-methoxy-6-(methylsulfonyl)benzyl)-1H-1,2,3-triazole-4-carboxamide]",100 to 2000 nM
15,"COc1ccc(-n2cnnn2)c(CNC(=O)c2cn(Cc3cn4cc(C5CC5)cc(CCC(=O)O)c4n3)nn2)c1F [Example I-92, 3-(6-cyclopropyl-2-((4-((2-fluoro-3-methoxy-6-(1H-tetrazol-1-yl)benzyl)carbamoyl)-1H-1,2,3-triazol-1-yl)methyl)imidazo[1,2-a]pyridin-8-yl)propanoic acid]",≤ 1 nM
16,"Cc1cc(C#N)cc(C)c1CNS(=O)(=O)c1cnn(Cc2cn3cc(C4CC4)ccc3n2)c1 [Example I-43, N-(4-cyano-2,6-dimethylbenzyl)-1-((6-cyclopropylimidazo[1,2-a]pyridin-2-yl)methyl)-1H-pyrazole-4-sulfonamide]",> 7100 nM
17,"COc1ccnc(CNC(=O)c2cn(Cc3cn4cc(C5CC5)ccc4n3)nn2)c1F [Example I-7, 1-((6-cyclopropylimidazo[1,2-a]pyridin-2-yl)methyl)-N-((3-fluoro-4-methoxypyridin-2-yl)methyl)-1H-1,2,3-triazole-4-carboxamide]",10 to 100 nM
18,"Nc1ncc(CNC(=O)c2cn(Cc3cn4cc(C5CC5)ccc4n3)nn2)s1 [Example I-18, N-((2-aminothiazol-5-yl)methyl)-1-((6-cyclopropylimidazo[1,2-a]pyridin-2-yl)methyl)-1H-1,2,3-triazole-4-carboxamide]",100 to 2000 nM
19,"O=C(NCc1ncc2c(F)cc(Cl)cn12)c1cnn(Cc2cn3cc(C4CC4)ccc3n2)c1 [Example I-137, N-((6-chloro-8-fluoroimidazo[1,5-a]pyridin-3-yl)methyl)-1-((6-cyclopropylimidazo[1,2-a]pyridin-2-yl)methyl)-1H-pyrazole-4-carboxamide]",100 to 2000 nM
20,"COc1ccc(-n2cnc(C(F)(F)F)n2)c(CNC(=O)c2cn(Cc3cn4cc(C5CC5)ccc4n3)nn2)c1F [Example I-52, 1-((6-cyclopropylimidazo[1,2-a]pyridin-2-yl)methyl)-N-(2-fluoro-3-methoxy-6-(3-(trifluoromethyl)-1H-1,2,4-triazol-1-yl)benzyl)-1H-1,2,3-triazole-4-carboxamide]",≤ 1 nM
21,"COc1ccc(-n2cnnn2)c(CNC(=O)c2cnc3n2C(c2cn4cc(C5CC5)ccc4n2)CC3)c1F (stereo not drawn) [Example I-24, 5-(6-cyclopropylimidazo[1,2-a]pyridin-2-yl)-N-(2-fluoro-3-methoxy-6-(1H-tetrazol-1-yl)benzyl)-6,7-dihydro-5H-pyrrolo[1,2-a]imidazole-3-carboxamide]",2000 to 7100 nM
22,"COc1cccc(CNC(=O)c2cn(Cc3cn4cc(C5CC5)ccc4n3)nn2)c1F [Example I-100, 1-((6-cyclopropylimidazo[1,2-a]pyridin-2-yl)methyl)-N-(2-fluoro-3-methoxybenzyl)-1H-1,2,3-triazole-4-carboxamide]",100 to 2000 nM
23,"COc1ccc(F)c(CNC(=O)c2cn(Cc3cn4cc(C5CC5)ccc4n3)nn2)c1F [Example I-64, 1-((6-cyclopropylimidazo[1,2-a]pyridin-2-yl)methyl)-N-(2,6-difluoro-3-methoxybenzyl)-1H-1,2,3-triazole-4-carboxamide]",10 to 100 nM
24,"O=C(NCc1cc2cc[nH]c2cn1)c1cn(Cc2cn3cc(C4CC4)ccc3n2)nn1 [Example I-144, N-((1H-pyrrolo[2,3-c]pyridin-5-yl)methyl)-1-((6-cyclopropylimidazo[1,2-a]pyridin-2-yl)methyl)-1H-1,2,3-triazole-4-carboxamide]",1 to 10 nM
25,"O=C(NCc1cc2c(cn1)CCO2)c1cn(Cc2cn3cc(C4CC4)ccc3n2)nn1 [Example I-141, 1-((6-cyclopropylimidazo[1,2-a]pyridin-2-yl)methyl)-N-((2,3-dihydrofuro[3,2-c]pyridin-6-yl)methyl)-1H-1,2,3-triazole-4-carboxamide]",10 to 100 nM
26,"Nc1nnc(CNC(=O)c2cn(Cc3cn4cc(C5CC5)ccc4n3)nn2)[nH]1 [Example I-21, N-((5-amino-4H-1,2,4-triazol-3-yl)methyl)-1-((6-cyclopropylimidazo[1,2-a]pyridin-2-yl)methyl)-1H-1,2,3-triazole-4-carboxamide]",2000 to 7100 nM
27,"O=C(NCc1c(-n2cnnn2)ccc(C2CC2)c1F)c1cn(Cc2cn3cc(C4CC4)ccc3n2)nn1 [Example I-78, N-(3-cyclopropyl-2-fluoro-6-(1H-tetrazol-1-yl)benzyl)-1-((6-cyclopropylimidazo[1,2-a]pyridin-2-yl)methyl)-1H-1,2,3-triazole-4-carboxamide]",10 to 100 nM
